Experimental findings from PubChem BioAssay (NCI) are described below.

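1) Cells in 96-well plates. 2) Compound, 48 h, 5 concentrations. 3) Linear interpolation between surrounding doses. 4) Unreached endpoint = highest concentration. GI50 is the concentration that inhibits growth by half. The concentration for full growth arrest is given as TGI.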

Holding throughout (test): NCI anticancer screen, dose series, 48 h
For experiment [1], the system named is U251 CNS.
Experiment [2] deals with ACHN renal.
Experiment [3] deals with SNB-75 CNS.
Experiment [4] relates to SF-539 CNS.
Experiment [5] has as its system KM12 colon.
The test system of experiment [6] is IGROV1 ovarian.
Experiment [7] has as its system SW-620 colon.
The subject of experiment [8] is HCT-15 colon.
For experiment [9], the system named is UACC-257 melanoma.
In experiment [10] the test system is SF-295 CNS.

`Cc1nc2c(ccc3ncccc32)[nH]1`: the TGI in experiment [1], in experiment [2], in [3], in experiment [4], in [5] and in experiment [6] was over 100 µM throughout. Also, the TGI in experiment [7], in experiment [8], in experiment [9] and in experiment [10] was over 100 µM each time.

With `Clc1ccccc1C(SCc1ccccc1)SCc1ccccc1`, the TGI in [1], in [2], in experiment [3], in experiment [4], in experiment [5] and in [6] was over 100 µM throughout. In addition, the TGI in experiment [7], in experiment [8], in [9] and in experiment [10] was over 100 µM each time.

For `OC1CSSC1Cn1cnc2c(Nc3ccc(OCc4cccc(F)c4)c(Cl)c3)ncnc21` (stereo not drawn), the GI50 in experiment [1] was 0.712 µM; in experiment [2], 1.7 µM; in [3] it was 4.16 µM; in [4], 1.89 µM; in experiment [5], 0.386 µM; in experiment [6], 4.46 µM. For the same compound, the GI50 was 1.17 µM in experiment [7], 0.767 µM in experiment [8], 4.09 µM in experiment [9] and 3.79 µM in experiment [10]. For the same compound, the TGI in experiment [1] stood at 1.43 µM; in experiment [2], 5.67 µM; in [3] it was 8.8 µM; in [4] it was 7.67 µM; in experiment [5] it was 1.43 µM; in [6], 13.6 µM. The TGI in experiment [7] was found to be 4.54 µM; in experiment [8] it was 2.16 µM; in experiment [9], 15.4 µM; in experiment [10], 10.4 µM.

On to `Cc1c(C(=O)C/C(=N/NC(=O)c2ccccc2O)C(=O)Nc2ccccc2C(C)C)[n+](=O)c2ccccc2n1[O-]`, for which the TGI in [1], in experiment [2], in experiment [3], in experiment [4], in experiment [5] and in experiment [6] was over 100 µM each time. For the same compound, the TGI in experiment [7], in experiment [8], in experiment [9] and in [10] was over 100 µM each time.

Consider `FC(F)(F)c1cccc(Nc2nc(-c3ccccc3)nc3ncccc23)c1`, for which the GI50 in experiment [1] was 3.52 µM; in [2] it was 3.3 µM; in [3] it was 7.85 µM; in experiment [4], 5.06 µM; in experiment [5] it was 4.3 µM; in experiment [6], 4.25 µM. Also, the results for the GI50 in experiment [7], in [8] and in [10] were 5.2 µM, 3.28 µM and 2.61 µM, respectively. The TGI in experiment [1] was 14.7 µM; in experiment [2] it was 11.4 µM; in [3], 31.3 µM; in [4], 17.5 µM; in experiment [5], over 100 µM; in [6] it was 16.8 µM. In addition, the TGI came to 24.7 µM in [7], 23.7 µM in [8] and 8.34 µM in experiment [10].

For `CCCCCCCCCCCC(=O)OCCOCCOCCOCCOCCOCc1ccccc1`, the TGI in experiment [1], in experiment [2], in experiment [3], in [5], in [6] and in experiment [7] was over 100 µM throughout. Moreover, the TGI in experiment [8], in experiment [9] and in [10] was over 100 µM in each case.

For the compound `COC(CCC[N+](C)(C)C)CC[N+](C)(C)C` (stereo not drawn), the TGI in experiment [1], in [2], in experiment [3], in experiment [4], in [6] and in experiment [7] was over 100 µM each time. Moreover, the TGI in experiment [8], in experiment [9] and in [10] was over 100 µM in each case.

`Cc1ccc(S(=O)(=O)OC[C@@H]2CO2)cc1`: the TGI in experiment [2], in experiment [3], in experiment [4], in experiment [5], in [6] and in experiment [7] was over 100 µM throughout. Also, the TGI in experiment [8] and in experiment [9] was over 100 µM each time.

As for `O=C(O)CCNCCCNCCC(=O)O`, the TGI in experiment [1], in experiment [2], in [3], in experiment [4], in [5] and in experiment [6] was over 100 µM each time. Further, the TGI in experiment [7], in experiment [8] and in experiment [10] was over 100 µM in each case.

`CCC[CH2][Sn]([CH2]CCC)([S]c1cccc2cccnc12)[S]c1cccc2cccnc12`: the GI50 in experiment [1] was 0.197 µM; in experiment [2] it was 0.193 µM; in experiment [3] it was 0.234 µM; in experiment [4], 0.234 µM; in experiment [6] it was 0.224 µM; in experiment [7], 0.132 µM. For the same compound, the values for the GI50 in experiment [8] and in experiment [10] were 0.176 µM and 0.404 µM, respectively. The TGI amounted to 0.409 µM in experiment [1]; 0.396 µM in [2]; 0.926 µM in experiment [3]; 0.617 µM in [4]; 0.53 µM in experiment [6]; 0.379 µM in [7]. Moreover, the TGI in experiment [8] amounted to 0.411 µM; in experiment [10] it was 1.39 µM.

In the case of `Cc1ccsc1C(=S)Nc1ccc(Cl)c(/C=N/OC(C)(C)C)c1`, the TGI in [1] was 79.3 µM; in experiment [2] it was 75.7 µM; in [4] it was over 100 µM; in experiment [5], over 100 µM; in experiment [6] it was over 100 µM; in [7], over 100 µM. The TGI in [8] was over 100 µM; in experiment [9], 69.1 µM; in experiment [10], over 100 µM.

Take `CCOC(=O)CCC1(C(=O)OCC)CCCCC1=O` (stereo not drawn): the TGI in [1], in experiment [2], in experiment [3], in experiment [4], in experiment [5] and in experiment [6] was over 100 µM throughout. Further, the TGI in experiment [7], in [9] and in [10] was over 100 µM throughout.

With `CC(C)=CCC\C(C)=C/C=C/C(C)=C\C=C\C(C)=C/C=C/C=C(C)\C=C\C=C(C)/C=C/C=C(/C)CCC=C(C)C`, the TGI in experiment [2], in experiment [3], in [4], in experiment [5], in experiment [6] and in experiment [7] was over 100 µM each time. For the same compound, the TGI in [8], in [9] and in [10] was over 100 µM each time.

Consider `Cc1ccc2c(C)c3c(ccc4ccccc43)c[n+]2c1`, for which the GI50 is 2.8 µM in [1]; 29.6 µM in experiment [2]; 11.9 µM in [3]; 13.8 µM in experiment [4]; 1.56 µM in experiment [5]; 9.28 µM in experiment [6]. For the same compound, the values for the GI50 in [8], in experiment [9] and in experiment [10] were 77.7 µM, 10.4 µM and 3.04 µM, respectively. For the same compound, the TGI in experiment [1] was 18.6 µM; in experiment [2], over 100 µM; in experiment [3] it was 40.3 µM; in [4], 28.2 µM; in experiment [5] it was 14.8 µM; in experiment [6] it was 80.1 µM. The TGI in experiment [8] is over 100 µM; in experiment [9], 77.1 µM; in [10], 31.7 µM.

As for `CC1CCc2nc[nH]c(=O)c21` (stereo not drawn), the GI50 in experiment [2], in [3], in experiment [4], in experiment [5], in [6] and in [7] was over 100 µM throughout. Besides, in experiment [8], the GI50 is over 100 µM. Besides, the TGI in [2], in [3], in experiment [4], in [5], in [6] and in experiment [7] was over 100 µM in each case. The compound further displayed a TGI in experiment [8] of over 100 µM.

As to `O=C(CC(=O)c1cccc2ccccc12)C(=O)Nc1ccc(Cl)cc1`, the TGI in experiment [1], in experiment [2], in [4], in experiment [5], in experiment [6] and in [7] was over 100 µM throughout. For the same compound, the TGI in experiment [8], in [9] and in [10] was over 100 µM throughout.

For the compound `COc1ccccc1N1C(=O)C2c3[nH]c4ccccc4c3C3CCC(C(C)(C)C)CC3C2C1=O` (stereo not drawn), the TGI in experiment [1], in experiment [2], in experiment [3], in experiment [4], in experiment [6] and in experiment [7] was over 100 µM throughout. Further, the TGI in experiment [8], in [9] and in experiment [10] was over 100 µM in each case.

`CC(=O)OC1OC([C@@H]2c3cccc(O)c3C(=O)c3c(O)cc(C)cc32)C(O)C(O)C1O` (stereo partly drawn): the GI50 in experiment [1] is under 0.0152 µM; in experiment [2], 0.0319 µM; in experiment [4], 0.0419 µM; in experiment [5], under 0.01 µM; in experiment [7], 0.0231 µM; in experiment [8], 0.0305 µM. Further, the GI50 in [9] was 0.0951 µM; in experiment [10], under 0.0166 µM. Also, the TGI in [1] amounted to 0.257 µM; in experiment [2], 0.282 µM; in experiment [4], 1.47 µM; in experiment [7], 1.73 µM; in experiment [8], 1.46 µM; in experiment [9] it was 1.33 µM. In experiment [10], this compound had a TGI of 0.119 µM.

For `COC(=O)C1(C(C)C)CCc2c(OC)ccc(OC)c2C1=O` (stereo not drawn), the TGI in experiment [1], in [2], in experiment [4], in experiment [5], in experiment [6] and in experiment [7] was over 100 µM in each case. Moreover, the TGI in experiment [8], in experiment [9] and in [10] was over 100 µM in each case.

Regarding `CCOC(=O)C(C)(C)Oc1ccc2c(-c3ccccc3)cc(=O)oc2c1`, the TGI in [1] is over 100 µM; in experiment [2], over 100 µM; in experiment [3] it was 56.5 µM; in experiment [4], 86.5 µM; in experiment [6] it was over 100 µM; in experiment [7] it was over 100 µM. The TGI in experiment [8] is over 100 µM; in experiment [9] it was 75.5 µM; in [10], over 100 µM.

Turning to `CO/C(=N\N=C\c1ccc(C(F)(F)F)cc1)c1ccncc1`, the TGI in experiment [1], in experiment [2], in experiment [5], in experiment [7], in experiment [8] and in experiment [9] was over 10 µM throughout. Further, the TGI in experiment [10] is over 10 µM.

Consider `COc1cc(/C=N\NC(=O)CN2CCN(c3cc4c(cc3F)c(=O)c(C(=O)N/N=C/c3cc(OC)c(OC)c(OC)c3)cn4C3CC3)CC2)cc(OC)c1OC`, for which the GI50 in experiment [1] was 0.328 µM; in [2] it was over 100 µM; in [3] it was 0.53 µM; in experiment [4], 0.212 µM; in experiment [6] it was 0.365 µM; in experiment [7] it was 0.328 µM. Besides, the GI50 in experiment [8] was over 100 µM; in [9], 0.36 µM; in [10], 0.685 µM. Besides, the TGI in experiment [1] was over 100 µM; in [2], over 100 µM; in experiment [3], 2.12 µM; in experiment [4], 0.522 µM; in [6], 11.8 µM; in experiment [7] it was over 100 µM. Also, the TGI in [8] is over 100 µM; in [10] it was 5.58 µM.

Turning to `COc1cnc2c(c1)C(=O)c1c-2n(CCCN2CCOCC2)c(=O)c2cc(F)ccc12`, the GI50 is 0.0936 µM in [1]; 0.177 µM in [2]; 0.362 µM in experiment [3]; 0.288 µM in experiment [4]; 0.316 µM in [5]; 0.354 µM in experiment [6]. For the same compound, the results for the GI50 in experiment [7] and in experiment [10] were 0.149 µM and 0.141 µM, respectively. Also, the TGI in [1] was 0.563 µM; in experiment [2], 0.6 µM; in [3], 9.7 µM; in [4], 1.08 µM; in experiment [5], over 100 µM; in experiment [6] it was over 100 µM. The TGI in experiment [7] was over 100 µM; in experiment [10], 0.864 µM.

For `COC(=O)c1ccccc1NC(=O)C(=O)Cc1nc2c3c(ccc2[nH]c1=O)C(=O)c1ccccc1C3=O`, the TGI in experiment [1] was 35.9 µM; in experiment [2] it was over 100 µM; in [3], over 100 µM; in experiment [4] it was over 100 µM; in [5] it was over 100 µM; in [6] it was 99.1 µM. Also, the TGI was 55.7 µM in experiment [7], over 100 µM in experiment [8] and 62.8 µM in experiment [9].
